“And” between values parts separate entries of the source, which are not always exact repeats. Equal values may be shown once.
Assays:
MIA rat model of OA [1] = test: MIA trial 3 digital Randall-Selitto test (weekly i.a. clonidine 4.5 μg, tacrolimus 30 ng, fluocinolone 15 ng, meloxicam 100 μg, tranilast 500 ng, TH 150 μg; clonidine 100 μg/kg s.c.); format: in vivo
Method: The digital Randall-Selitto (dRS) test is said to be a reliable and repeatable measure of neuropathic, bone, and inflammatory pain behavior in several different models, including those of arthritic or joint pain [29, 31, 32]. Baseline and posttreatment values were evaluated using a dRS test device (IITC Life Science, Woodland Hills, CA, USA). Animals were allowed to acclimate to the testing room before all experimentation and for a minimum of 30 minutes before testing. To ensure that their hind limbs were accessible, the animals were gently suspended in a restraint sling. The joint compression threshold was measured once at each time point for the ipsilateral and contralateral knee joints. Pressure was applied gradually over approximately 10 seconds to the medial and lateral aspects of the knee joint. Measurements were taken from the first observed behavior of vocalization, struggle, or withdrawal. A cutoff value of 600 g was used to prevent injury to the animal.
Following isoflurane anesthesia, 50 μl (2 mg) of MIA was injected into the synovial space of the left knee. Animals were randomly assigned to groups, and pain behavior was assessed 7, 14, 21, and 28 days following MIA injection and intervention using WB with the Stoelting incapacitance meter (trial 1) or the dRS test (trials 2 and 3). […] Animals received MIA treatment and then saline control or therapeutic. […] Histopathology was performed at each time point and at study termination. All studies were conducted in accordance with the International Association for the Study of Pain Guidelines and were approved by the Algos Therapeutics, Inc. Institutional Animal Care and Use Committee (IACUC) before initiation. Those running the studies were blind to the treatments. See Additional file 1 for further details. […]
struggle or withdrawal. A cut-off value of 600 g was used to prevent injury to the animal. The mean and standard error of the mean (SEM) were determined for each treatment group.
Statistical significance was assigned as p ≤ 0.05. The stability of the vehicle group over time was assessed on each testing day (Days 7, 14, 21, and 28) using repeated measures one-way analysis of variance (ANOVA) comparing joint compression thresholds at each experimental time point on a given testing day versus that testing day’s pre-treatment value. Osteoarthritis-related pain in the vehicle group was estimated at each time point on each testing day by comparing ipsilateral (injured) to contralateral (normal) joint compression thresholds using paired t-tests. The progression of osteoarthritis-related pain in the vehicle group was estimated by comparing pre-treatment joint compression thresholds on each testing day versus pre-MIA measurements using repeated measures one-way ANOVA. […]
thresholds at each experimental time point on a given testing day with vehicle treated animals using an unpaired t-test. The acute effect of Tacrolimus was analyzed by comparing joint compression thresholds at each time point on a given testing day with the corresponding pre-treatment baseline values using repeated measures one-way ANOVA and compared to vehicle treated animals using […]
values using repeated measures one-way ANOVA. Chronic effects were analyzed by comparing pre-treatment joint compression thresholds on each testing day versus the appropriate Day 7 pre-treatment values using repeated measures one-way ANOVA and by comparing pre-treatment joint compression thresholds with vehicle treated animals on each testing day using an unpaired t-test or one-way ANOVA. Day 7 pre-treatment joint compression thresholds between all groups were assessed using one-way ANOVA. The Dunnett’s multiple comparison post hoc test was used when […]
dosing were housed three per cage. Animals had free access to food and water and were maintained […]
The animal colony was maintained at approximately 21 °C. All experiments were conducted in accordance with the International Association for the Study of Pain Guidelines.

[2] = Comparison of in vitro screens: overlapping effective and nontoxic range;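 also: compares non-toxic ranges in synovial cells and chondrocytes with effective ranges against NFkB, MMP-13 and osteoclasts, giving their overlap as the predicted efficacy range in uM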
SW982 = test: Synovial toxicity (CellTiter-Glo), with or without TNF-α
[3] = test system: Normal human articular chondrocytes; test: Cytotoxicity to chondrogenic pellets (CellTiter-Blue)
MMP-13 = MMP-13 ELISA on supernatants of TNF-α-treated chondrogenic pellets; format: cell-based, human
MIA rat model of OA [4] = test: MIA trial 3 histopathology (same doses as dRS test); format: in vivo; design: key to Cartilage matrix damage score: 5-point cartilage matrix score; key to Mean of all cartilage loss: approximate % loss, mean of four articular surfaces; Subchondral bone sclerosis: scale not given here
Description: For MIA trial 3, joints were fixed and toluidine blue–stained sections of the rat knees were comprehensively analyzed from test and control subjects as detailed in Additional file 1. Briefly, a 5-point cartilage matrix score was derived based upon (1) approximate percentage of total loss of articular chondrocytes for each of four articular surfaces, (2) estimated proteoglycan loss (via Safranin O staining), and (3) loss of interstitial matrix. Chondrocyte necrosis and proteolytic degeneration of the femurs were scored on a 5-point scale as in trial 1. A femoral cartilage degeneration score and a three-zone sum of the tibial cartilage degeneration scores (mean of three levels) were also summed to create a total cartilage degeneration score. The mean osteophyte score for each joint was added to this value to create a total joint score with matrix. Other parameters assessed included synovial membrane inflammation and proliferation. Representative images from each group were also collected (see, e.g., Fig. 4 and Additional file 1: Fig. S55, Trial 3). […]
Hawes, APS, Pathologist). Treatments were masked during the assessment. Chondrocyte necrosis and proteolytic degeneration of the femurs were scored on a 5 point scale with 0 = None; 1 = <10%; […]
For the histopathology of the MIA model in Trial 3, completed by Bolder BioPATH (and Dr.
Bendele), a tolouidine blue stained slide containing both halves of the joint was comprehensively analyzed from test and control subjects. Approximate % of total loss of articular chondrocytes, loss of proteoglycan and loss of collagenous matrix were determined for each articular surface (medial tibial plateau (MTP), lateral tibial plateau (LTP), medial femoral condyle (MFC), and lateral femoral condyle (LFC). Chondrocyte loss was quantified by estimating the area of cartilage in which there were no apparently viable chondrocytes and proteoglycan loss was quantified by estimating differences in intensity of toluidine blue matrix staining. Loss of interstitial matrix was an indication of disruption and diminished type II collagen. Based on the mean % loss for the four surfaces in these parameters, a five point matrix score was utilized with the subchondral bone resorption, subchondral bone sclerosis and osteophyte scores to achieve a total joint score. […]
[…] steps, stained with toluidine blue (with a right and left halve per section), and analyzed for cartilage degeneration, proteoglycan loss, collagen damage, and osteophyte formation. Results were averaged across the 3 sections for an overall semi-quantitative score. Regional differences across the tibial plateau were taken into consideration by dividing each section into 3 zones delineated using an ocular micrometer (outside, middle, and inside). Scores were based on the percentage of area affected within the zone.
Cartilage degeneration in the tibia was scored on a five point scale for each zone, collagen damage across the medial tibial plateau was measured by total width for each grade damage. Cartilage degeneration in the tibia was scored none to severe (numerical values 0-5) for each zone (area defined by micrometer) using the following criteria: […]

RAW 264.7 cells = test: RANKL-mediated osteoclastogenesis / matrix resorption (Osteologic) assay; format: cell-based, murine
Method: RAW 264.7 cells (American Type Culture Collection [ATCC], Manassas, VA, USA), a murine monocytic cell line that differentiates in the presence of RANKL, was used for measurements of osteoclastogenesis and osteoclast activity. Cells were amplified on nonadherent culture substratum in high-glucose Dulbecco’s modified Eagle’s medium (DMEM) containing 10 % fetal bovine serum (FBS) and penicillin-streptomycin in a 37 °C, 5 % CO2, humidified incubator and were passaged by manual dissociation. […] Plates were subsequently rinsed, bleached, dried, and analyzed for matrix degradation using a Nikon COOLSCOPE (Nikon Instruments, Melville, NY, USA). Matrix resorption was quantified using EclipseNet (Nikon Instruments)/Visiopharm (Visiopharm, Hørsholm, Denmark) software (see Additional file 1).
In Vitro Osteoclastogenesis
Osteoclastogenic activity was measured using BD osteologic plates and quantitation of the degree of bone matrix digestion on the plate surface. Images from the BD Osteologic assay used to […]
left pane depicts an example of a control well after removal of cells from matrix. Pseudocoloring of matrix (blue) and pits (green) is shown in the far right pane. A transparent overlay of the two images is shown in the center.
Figure 5 - Measurement of drug effects on osteoclastogenesis and osteoclast activity.
Comparisons were made between RANKL treated control wells and wells treated with both RANKL and […]
Agents were initially tested either during differentiation or post differentiation in the bone assay […]
(e.g., Figure 2, Sulfazalazine). […]
indicated (*/**: p < 0.05/0.01, unpaired t-test versus RANKL control). […]

## Cc1cnc(NC(=O)C2=C(O)c3ccccc3S(=O)(=O)N2C)s1 [Meloxicam]
MIA rat model of OA [1]; day 7
  dRS, hours after dosing with significant difference: 1 h
MIA rat model of OA [1]; day 14
  dRS, hours after dosing with significant difference: 3 h
[2]
  Non-toxic & predicted range of efficacy: 16 to 32 µM
[2]; inhibits with minimal or no toxicity to synovium or cartilage, overlapping range if effective in more than one assay
  Overlapping effective and nontoxic range: 16 to 32 µM
SW982
  Non-toxic range (Synovial): 0.25 to 16 µM
[3]
  Non-toxic range (Chondrocyte): 0.125 to 8 M
MMP-13
  Effective range against MMP-13: Not effective
MIA rat model of OA [4]; group mean, i.a. weekly
  Bone resorption percent, LFC: 0%
  Bone resorption percent, LTP: 0%
  Bone resorption percent, MFC: 15%
  Bone resorption percent, MTP: 15%
  Bone resorption percent, mean: 8%
  Bone resorption score: 1.0
  Cartilage matrix damage score: 1.0 and 1.0 ± 0.0
  Mean of all cartilage loss: 9.7
  Osteophyte measure: 146.7 µm
  Osteophyte score: 0.7
  Subchondral bone sclerosis: 0.3
  Total joint score w/o matrix: 2.0
  Total joint score with matrix: 3.0 and 3.0 ± 1.2
MIA rat model of OA [4]; meloxicam 100 μg i.a.
  Decrease of total joint score vs vehicle controls: 47%
RAW 264.7 cells
  Effective range against Osteoclasts: Not effective
